In patent US20260294915A1, “COMBINATION THERAPY COMPRISING A MAT2A INHIBITOR AND A TOPOISOMERASE INHIBITOR, A SPLICING INHIBITOR SULFONAMIDE, OR A KIF18 INHIBITOR” (IDEAYA BIOSCIENCES, INC., priority 2023, published 2026):
Read-outs that look alike come from different tables or passages of the source.

Key:
Assay in all cases: 10-day proliferation (CTG), equimolar Compound A + SPLAM (Example 4)
Format in all cases: cell-based
TCCSUP = conditions: single agent or 1:1 combo; for IC50: Homo sapiens, TCC-SUP, read-out: gIC50; for IC80: read-out: gIC80; for IC90: read-out: gIC90
Protocol: (§1) A 10-day proliferation assay was performed in a panel of 5 MTAP-deficient and 2 wild type non-small cell lung and bladder cancer cell lines. Optimal cell seeding for all cell lines was determined by assessing the growth over a range of seeding densities in a 384-well format to identify conditions that permitted proliferation for 10 days. Cells were then plated at the optimal seeding density and treated with 20-point, two-fold dilution series of Compound A, the splicing inhibitor sulfonamide (SPLAM), or an equimolar combination of Compound A and the SPLAM. Combinations tested included Compound A in combination with four structurally different SPLAMs. Concentrations tested for Compound A and each SPLAM alone or in combination ranged from 0.04 nM to 20,000 nM. A plate of cells was harvested at the time of compound addition to quantify the number of cells at the start of the combination (T0). For cell quantification, the harvested cells were lysed with Promega CellTiter-Glo (CTG) reagent according to the manufacturer's protocol and the chemiluminescent signal was detected on a Synergy Neo plate reader. CTG estimates cell number through detection of cellular ATP levels. Cells were incubated with the drug combinations at 37° C. with 5% CO2 for 10 days. Cells were then lysed with CTG and the chemiluminescent signal was measured.
(§2) CTG values obtained after the 10-day treatment were background subtracted and expressed as a percent of the T0 value. Data were plotted against compound concentration and fit with a four-parameter equation to generate dose response curves for each single agent and the equimolar combination. Growth ICx (gICx) values ranging from gIC30 to gIC100 were interpolated from the fitted curves. Synergistic growth inhibition was assessed by determination of Combination Index (CI) values at these various points across the titration using the mutually non-exclusive equation [Chou, 1983; Chou, 1981] shown below where A equals the gICx value of Compound A, B equals the gICx value of the SPLAM, and A+B or B+A equals the gICx value of the equimolar combination. A Combination Index value less than 1.0 was considered synergistic.

NCI-H838 = conditions: single agent or 1:1 combo; for IC50: Homo sapiens, read-out: gIC50; for IC80: read-out: gIC80; for IC90: read-out: gIC90
Protocol: as §1, §2

UMUC11 = conditions: single agent or 1:1 combo; for IC50: read-out: gIC50; for IC80: read-out: gIC80; for IC90: read-out: gIC90
Protocol: as §1, §2

SW900 = conditions: single agent or 1:1 combo; for IC50: Homo sapiens, read-out: gIC50; for IC80: read-out: gIC80; for IC90: read-out: gIC90
Protocol: as §1, §2

NCI-H520 = conditions: single agent or 1:1 combo; for IC50: Homo sapiens, read-out: gIC50; for IC80: read-out: gIC80; for IC90: read-out: gIC90
Protocol: as §1, §2

UMUC5 = conditions: single agent or 1:1 combo; for IC50: read-out: gIC50; for IC80: read-out: gIC80; for IC90: read-out: gIC90
Protocol: as §1, §2

RT112/84 = conditions: single agent or 1:1 combo; for IC50: Homo sapiens, read-out: gIC50; for IC80: read-out: gIC80; for IC90: read-out: gIC90
Protocol: as §1, §2

## Nc1nc(=O)n(-c2ccccc2Cl)c2nc(C(F)(F)F)ccc12 [Compound A]
TCCSUP; 10 days
  gIC30: 14.461 µM
  gIC40: 19.467 µM
  gIC60: 20 µM
  gIC70: 20 µM
  gIC100: 20 µM
TCCSUP; 240 h, 10 days
  IC50: 20000 nM
TCCSUP
  IC50: 20000 nM
  gIC30: 14.461 µM
  gIC40: 19.467 µM
  gIC60: 20 µM
  gIC70: 20 µM
  gIC100: 20 µM
NCI-H838; 10 days
  gIC30: 102 nM
  gIC40: 189 nM
  gIC60: 11.309 µM
  gIC70: 20 µM
  gIC100: 20 µM
NCI-H838; NCI-H838, 240 h, 10 days
  IC50: 594 nM
NCI-H838; NCI-H838
  IC50: 594 nM
NCI-H838
  gIC30: 102 nM
  gIC40: 189 nM
  gIC60: 11.309 µM
  gIC70: 20 µM
  gIC100: 20 µM
UMUC11; 240 h, 10 days
  IC50: 20000 nM
UMUC11; 10 days
  gIC30: 20 µM
  gIC40: 20 µM
  gIC60: 20 µM
  gIC70: 20 µM
  gIC100: 20 µM
UMUC11
  gIC30: 20 µM
  gIC40: 20 µM
  gIC60: 20 µM
  gIC70: 20 µM
  gIC100: 20 µM
  IC50: 20000 nM
SW900; 10 days
  gIC30: 19.994 µM
  gIC40: 20 µM
  gIC60: 20 µM
  gIC70: 20 µM
  gIC100: 20 µM
SW900; SW900, 240 h, 10 days
  IC50: 20000 nM
SW900; SW900
  IC50: 20000 nM
SW900
  gIC30: 19.994 µM
  gIC40: 20 µM
  gIC60: 20 µM
  gIC70: 20 µM
  gIC100: 20 µM
NCI-H520; 10 days
  gIC30: 20 µM
  gIC40: 20 µM
  gIC60: 20 µM
  gIC70: 20 µM
  gIC100: 20 µM
NCI-H520; NCI-H520, 240 h, 10 days
  IC50: 20000 nM
NCI-H520; NCI-H520
  IC50: 20000 nM
NCI-H520
  gIC30: 20 µM
  gIC40: 20 µM
  gIC60: 20 µM
  gIC70: 20 µM
  gIC100: 20 µM
UMUC5; 240 h, 10 days
  IC50: 4280 nM
UMUC5; 10 days
  gIC30: 420 nM
  gIC40: 1291 nM
  gIC60: 13.142 µM
  gIC70: 20 µM
  gIC100: 20 µM
UMUC5
  gIC30: 420 nM
  gIC40: 1291 nM
  gIC60: 13.142 µM
  gIC70: 20 µM
  gIC100: 20 µM
  IC50: 4280 nM
RT112/84; 10 days
  gIC30: 345 nM
  gIC40: 1111 nM
  gIC60: 12.951 µM
  gIC70: 20 µM
  gIC100: 20 µM
RT112/84; RT112/84, 240 h, 10 days
  IC50: 3400 nM
RT112/84; RT112/84
  IC50: 3400 nM
RT112/84
  gIC30: 345 nM
  gIC40: 1111 nM
  gIC60: 12.951 µM
  gIC70: 20 µM
  gIC100: 20 µM

## NS(=O)(=O)c1ccc(S(=O)(=O)Nc2cccc3c(Cl)c[nH]c23)cc1 [Indisulam, N-(3-chloro-1H-indol-7-yl)benzene-1,4-disulfonamide]
TCCSUP; 10 days
  gIC30: 20 µM
  gIC40: 20 µM
  gIC60: 20 µM
  gIC70: 20 µM
  gIC100: 20 µM
  IC80: 20000 nM
  IC90: 20000 nM
TCCSUP; 240 h, 10 days
  IC50: 20000 nM
NCI-H838; 10 days
  gIC30: 276 nM
  gIC40: 300 nM
  gIC60: 0.355 µM
  gIC70: 0.393 µM
  gIC100: 20 µM
  IC80: 448 nM
  IC90: 551 nM
NCI-H838; NCI-H838, 240 h, 10 days
  IC50: 325 nM
UMUC11; 240 h, 10 days
  IC50: 472 nM
UMUC11; 10 days
  gIC30: 0.369 µM
  gIC40: 0.417 µM
  gIC60: 0.539 µM
  gIC70: 0.628 µM
  gIC100: 20 µM
  IC80: 769 nM
  IC90: 1110 nM
SW900; 10 days
  gIC30: 0.295 µM
  gIC40: 0.3 µM
  gIC60: 0.31 µM
  gIC70: 0.315 µM
  gIC100: 0.357 µM
  IC80: 321 nM
  IC90: 331 nM
SW900; SW900, 240 h, 10 days
  IC50: 305 nM
NCI-H520; 10 days
  gIC30: 0.47 µM
  gIC40: 0.546 µM
  gIC60: 0.743 µM
  gIC70: 0.897 µM
  gIC100: 20 µM
  IC80: 1160 nM
  IC90: 2070 nM
NCI-H520; NCI-H520, 240 h, 10 days
  IC50: 633 nM
UMUC5; 240 h, 10 days
  IC50: 420 nM
UMUC5; 10 days
  gIC30: 310 nM
  gIC40: 363 nM
  gIC60: 0.487 µM
  gIC70: 0.574 µM
  gIC100: 20 µM
  IC80: 707 nM
  IC90: 990 nM
RT112/84; 10 days
  gIC30: 249 nM
  gIC40: 273 nM
  gIC60: 0.327 µM
  gIC70: 0.363 µM
  gIC100: 20 µM
  IC80: 414 nM
  IC90: 510 nM
RT112/84; RT112/84, 240 h, 10 days
  IC50: 298 nM

## Cc1ccc(NS(=O)(=O)c2cccc(C#N)c2)c2[nH]cc(C#N)c12 [Compound E7820, 3-cyano-N-(3-cyano-4-methyl-1H-indol-7-yl)benzenesulfonamide]
TCCSUP; 10 days
  gIC30: 20 µM
  gIC40: 20 µM
  gIC60: 20 µM
  gIC70: 20 µM
  gIC100: 20 µM
  IC80: 20000 nM
  IC90: 20000 nM
TCCSUP; 240 h, 10 days
  IC50: 20000 nM
NCI-H838; 10 days
  gIC30: 328 nM
  gIC40: 357 nM
  gIC60: 0.425 µM
  gIC70: 0.472 µM
  gIC100: 20 µM
  IC80: 539 nM
  IC90: 666 nM
NCI-H838; NCI-H838, 240 h, 10 days
  IC50: 388 nM
UMUC11; 240 h, 10 days
  IC50: 452 nM
UMUC11; 10 days
  gIC30: 0.361 µM
  gIC40: 0.404 µM
  gIC60: 0.511 µM
  gIC70: 0.589 µM
  gIC100: 20 µM
  IC80: 713 nM
  IC90: 1010 nM
SW900; 10 days
  gIC30: 0.284 µM
  gIC40: 0.29 µM
  gIC60: 0.303 µM
  gIC70: 0.309 µM
  gIC100: 0.362 µM
  IC80: 318 nM
  IC90: 330 nM
SW900; SW900, 240 h, 10 days
  IC50: 296 nM
NCI-H520; 10 days
  gIC30: 0.484 µM
  gIC40: 0.596 µM
  gIC60: 0.92 µM
  gIC70: 1.214 µM
  gIC100: 20 µM
  IC80: 1840 nM
  IC90: 12000 nM
NCI-H520; NCI-H520, 240 h, 10 days
  IC50: 734 nM
UMUC5; 240 h, 10 days
  IC50: 460 nM
UMUC5; 10 days
  gIC30: 330 nM
  gIC40: 390 nM
  gIC60: 0.547 µM
  gIC70: 0.673 µM
  gIC100: 20 µM
  IC80: 900 nM
  IC90: 1900 nM
RT112/84; 10 days
  gIC30: 213 nM
  gIC40: 237 nM
  gIC60: 0.29 µM
  gIC70: 0.326 µM
  gIC100: 10.429 µM
  IC80: 375 nM
  IC90: 466 nM
RT112/84; RT112/84, 240 h, 10 days
  IC50: 262 nM
